Assay results published in patent US8921360B2, “Heterobicycle-substituted azolyl benzene fungicides” (priority 2009, dated 2014).

How the values were obtained:
Assay type in all cases: in vivo
[1] = test system: Septoria nodorum; assay: Test D: wheat glume blotch, preventive spray on wheat seedlings; settings: wheat seedlings sprayed to run-off, inoculated next day, rated after 48 h + 7 days; for Percentage Disease Control Test D: 200 ppm
Description: General protocol for preparing test suspensions for Tests A-G: the test compounds were first dissolved in acetone in an amount equal to 11% of the final volume and then suspended at the desired concentration (in ppm) in acetone and purified water (50/50 mix by volume) containing 250 ppm of the surfactant Trem® 014 (polyhydric alcohol esters). The resulting test suspensions were then used in Tests A-G. Spraying a 200 ppm test suspension to the point of run-off on the test plants was the equivalent of a rate of 800 g/ha. The test suspension was sprayed to the point of run-off on wheat seedlings. The following day the seedlings were inoculated with a spore suspension of Septoria nodorum (the causal agent of wheat glume blotch) and incubated in a saturated atmosphere at 20° C. for 48 h, and then moved to a growth chamber at 20° C. for 7 days, after which time disease ratings were visually made. Results for Tests A-G are given in Table A. In the Table, a rating of 100 indicates 100% disease control and a rating of 0 indicates no disease control (relative to the controls). A dash (-) indicates no test results. All results are for 200 ppm except where followed by an “*”, which indicates 40 ppm.

[2] = test system: Puccinia recondita f. sp. tritici; assay: Test C: wheat leaf rust, spray the day after inoculation of wheat seedlings; settings: 200 ppm; wheat seedlings inoculated, sprayed the following day, rated after 5 days;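 further: Curative spray on infected wheat seedlings with visual rating 5 days later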
Description: General protocol for preparing test suspensions for Tests A-G: the test compounds were first dissolved in acetone in an amount equal to 11% of the final volume and then suspended at the desired concentration (in ppm) in acetone and purified water (50/50 mix by volume) containing 250 ppm of the surfactant Trem® 014 (polyhydric alcohol esters). The resulting test suspensions were then used in Tests A-G. Spraying a 200 ppm test suspension to the point of run-off on the test plants was the equivalent of a rate of 800 g/ha. Wheat seedlings were inoculated with a spore suspension of Puccinia recondita f. sp. tritici (the causal agent of wheat leaf rust) and incubated in a saturated atmosphere at 20° C. for 24 h. The following day, the test suspension was sprayed to the point of run-off on the wheat seedlings and then moved to a growth chamber at 20° C. for 5 days, after which time disease ratings were visually made. Results for Tests A-G are given in Table A. In the Table, a rating of 100 indicates 100% disease control and a rating of 0 indicates no disease control (relative to the controls). A dash (-) indicates no test results. All results are for 200 ppm except where followed by an “*”, which indicates 40 ppm.

[3] = test system: Alternaria solani; assay: Test G: tomato early blight, preventive spray on tomato seedlings; settings: tomato seedlings sprayed to run-off, inoculated next day, rated after 48 h + 5 days; for Percentage Disease Control Test G: 200 ppm
Description: General protocol for preparing test suspensions for Tests A-G: the test compounds were first dissolved in acetone in an amount equal to 11% of the final volume and then suspended at the desired concentration (in ppm) in acetone and purified water (50/50 mix by volume) containing 250 ppm of the surfactant Trem® 014 (polyhydric alcohol esters). The resulting test suspensions were then used in Tests A-G. Spraying a 200 ppm test suspension to the point of run-off on the test plants was the equivalent of a rate of 800 g/ha. The test suspension was sprayed to the point of run-off on tomato seedlings. The following day the seedlings were inoculated with a spore suspension of Alternaria solani (the causal agent of tomato early blight) and incubated in a saturated atmosphere at 27° C. for 48 h, and then moved to a growth chamber at 24° C. for 5 days, after which time disease ratings were visually made. Results for Tests A-G are given in Table A. In the Table, a rating of 100 indicates 100% disease control and a rating of 0 indicates no disease control (relative to the controls). A dash (-) indicates no test results. All results are for 200 ppm except where followed by an “*”, which indicates 40 ppm.

[4] = test system: Erysiphe graminis f. sp. tritici; assay: Test A: wheat powdery mildew, preventive spray on wheat seedlings; settings: wheat seedlings sprayed to run-off, inoculated next day, rated after 8 days, 100 = 100% disease control, 0 = no control; for Percentage Disease Control Test A: 200 ppm
Description: General protocol for preparing test suspensions for Tests A-G: the test compounds were first dissolved in acetone in an amount equal to 11% of the final volume and then suspended at the desired concentration (in ppm) in acetone and purified water (50/50 mix by volume) containing 250 ppm of the surfactant Trem® 014 (polyhydric alcohol esters). The resulting test suspensions were then used in Tests A-G. Spraying a 200 ppm test suspension to the point of run-off on the test plants was the equivalent of a rate of 800 g/ha. The test suspension was sprayed to the point of run-off on wheat seedlings. The following day the seedlings were inoculated with a spore dust of Erysiphe graminis f. sp. tritici, (the causal agent of wheat powdery mildew) and incubated in a growth chamber at 20° C. for 8 days, after which time disease ratings were visually made. Results for Tests A-G are given in Table A. In the Table, a rating of 100 indicates 100% disease control and a rating of 0 indicates no disease control (relative to the controls). A dash (-) indicates no test results. All results are for 200 ppm except where followed by an “*”, which indicates 40 ppm.

[5] = test system: Puccinia recondita f sp. tritici; assay: Test B: wheat leaf rust, preventive spray on wheat seedlings; settings: wheat seedlings sprayed to run-off, inoculated next day, rated after 24 h + 7 days; for Percentage Disease Control Test B: 200 ppm
Description: General protocol for preparing test suspensions for Tests A-G: the test compounds were first dissolved in acetone in an amount equal to 11% of the final volume and then suspended at the desired concentration (in ppm) in acetone and purified water (50/50 mix by volume) containing 250 ppm of the surfactant Trem® 014 (polyhydric alcohol esters). The resulting test suspensions were then used in Tests A-G. Spraying a 200 ppm test suspension to the point of run-off on the test plants was the equivalent of a rate of 800 g/ha. The test suspension was sprayed to the point of run-off on wheat seedlings. The following day the seedlings were inoculated with a spore suspension of Puccinia recondita f sp. tritici (the causal agent of wheat leaf rust) and incubated in a saturated atmosphere at 20° C. for 24 h, and then moved to a growth chamber at 20° C. for 7 days, after which time disease ratings were visually made. Results for Tests A-G are given in Table A. In the Table, a rating of 100 indicates 100% disease control and a rating of 0 indicates no disease control (relative to the controls). A dash (-) indicates no test results. All results are for 200 ppm except where followed by an “*”, which indicates 40 ppm.

[6] = test system: Septoria tritici; assay: Test E: wheat leaf blotch, preventive spray on wheat seedlings; settings: 200 ppm, wheat seedlings sprayed to run-off, inoculated next day, rated after 48 h + 19 days
Description: General protocol for preparing test suspensions for Tests A-G: the test compounds were first dissolved in acetone in an amount equal to 11% of the final volume and then suspended at the desired concentration (in ppm) in acetone and purified water (50/50 mix by volume) containing 250 ppm of the surfactant Trem® 014 (polyhydric alcohol esters). The resulting test suspensions were then used in Tests A-G. Spraying a 200 ppm test suspension to the point of run-off on the test plants was the equivalent of a rate of 800 g/ha. The test suspension was sprayed to the point of run-off on wheat seedlings. The following day the seedlings were inoculated with a spore suspension of Septoria tritici (the causal agent of wheat leaf blotch) and incubated in a saturated atmosphere at 24° C. for 48 h, and then moved to a growth chamber at 20° C. for 19 days, after which time disease ratings were visually made. Results for Tests A-G are given in Table A. In the Table, a rating of 100 indicates 100% disease control and a rating of 0 indicates no disease control (relative to the controls). A dash (-) indicates no test results. All results are for 200 ppm except where followed by an “*”, which indicates 40 ppm.

[7] = test system: Botrytis cinerea; assay: Test F: tomato botrytis, preventive spray on tomato seedlings; settings: tomato seedlings sprayed to run-off, inoculated next day, rated after 48 h + 3 days; for Percentage Disease Control Test F: 200 ppm
Description: General protocol for preparing test suspensions for Tests A-G: the test compounds were first dissolved in acetone in an amount equal to 11% of the final volume and then suspended at the desired concentration (in ppm) in acetone and purified water (50/50 mix by volume) containing 250 ppm of the surfactant Trem® 014 (polyhydric alcohol esters). The resulting test suspensions were then used in Tests A-G. Spraying a 200 ppm test suspension to the point of run-off on the test plants was the equivalent of a rate of 800 g/ha. The test suspension was sprayed to the point of run-off on tomato seedlings. The following day the seedlings were inoculated with a spore suspension of Botrytis cinerea (the causal agent of tomato botrytis) and incubated in saturated atmosphere at 20° C. for 48 h, and then moved to a growth chamber at 27° C. for 3 additional days, after which time disease ratings were visually made. Results for Tests A-G are given in Table A. In the Table, a rating of 100 indicates 100% disease control and a rating of 0 indicates no disease control (relative to the controls). A dash (-) indicates no test results. All results are for 200 ppm except where followed by an “*”, which indicates 40 ppm.

| Structure (SMILES) | Percentage Disease Control Test D [1] | Percentage Disease Control Test C [2] | Percentage Disease Control Test G [3] | Percentage Disease Control Test A [4] | Percentage Disease Control Test B [5] | Percentage Disease Control Test E [6] | Percentage Disease Control Test F [7] | pest or weed control at 200 ppm ([1]; Parastagonospora nodorum, 216 h, read-out: Percentage Disease Control Test D) | pest or weed control at 200 ppm ([3]; Alternaria solani, topical, 168 h, read-out: Percentage Disease Control Test G) | pest or weed control at 200 ppm ([4]; Blumeria graminis, 192 h, read-out: Percentage Disease Control Test A) | pest or weed control at 200 ppm ([5]; Puccinia recondita, 192 h, read-out: Percentage Disease Control Test B) | pest or weed control at 200 ppm ([6]; Zymoseptoria tritici, 456 h, read-out: Percentage Disease Control Test E) | pest or weed control at 200 ppm ([7]; Botrytis cinerea, topical, 120 h, read-out: Percentage Disease Control Test F) |
| --- | --- | --- | --- | --- | --- | --- | --- | --- | --- | --- | --- | --- | --- |
| COC(=O)NCc1cc(-n2ccc(-c3ccc4c(c3)C(=O)CCO4)n2)ccc1F [Compound 18] | 99% | 74% | 50% | 90% | 100% | 97% | 79% |  |  |  |  |  |  |
| COC(=O)NCc1cc(-n2ccc(-c3ccc4c(c3)OCCO4)n2)ccc1C [Compound 26] | 100% | 100% | 9% | 100% | 100% | 99% | 33% |  |  |  |  |  |  |
| COC(=O)NCc1cc(-n2ccc(-c3ccc4c(c3)OCCO4)n2)ccc1F [Compound 10] | 100% | 100% | 84% | 100% | 100% | 98% | 94% |  |  |  |  |  |  |
| COC(=O)NCc1cc(-n2ccc(-c3ccc4c(c3)N(C)CCO4)n2)ccc1F [Compound 21] | 100% | 98% | 99% | 13% | 100% | 96% | 99% |  |  |  |  |  |  |
| COC(=O)NCc1cc(-c2ccn(-c3ccc4c(c3)CCCO4)n2)ccc1Br [Compound 16] | 100% | 100% | 85% | 100% | 100% | 100% | 99% |  |  |  |  |  |  |
| COC(=O)NCc1cc(-c2ccn(-c3ccc4c(c3)C=C(C#N)CO4)n2)ccc1Cl [Compound 27] | 100% | 0% | 86% | 0% | 99% | 0% | 66% |  |  |  |  |  |  |
| COC(=O)NCc1cc(-c2ccn(-c3ccc4c(c3)N(C)C(=O)CO4)n2)ccc1F [Compound 13] | 97% | 28% | 54% | 90% | 100% | 24% | 7% |  |  |  |  |  |  |
| COC(=O)NCc1cc(-n2ccc(-c3ccc4c(c3)NCCO4)n2)ccc1F [Compound 15] | 100% | 38% | 12% | 0% | 100% | 99% | 80% |  |  |  |  |  |  |
| COC(=O)NCc1cc(-c2ccn(-c3ccc4c(c3)CCCO4)n2)ccc1Cl [Compound 1, methyl N-[[2-chloro-5-[1-(3,4-dihydro-2H-1-benzopyran-6-yl)-1H-pyrazol-3-yl]phenyl]methyl]carbamate] |  |  |  |  |  |  |  | 100% | 100% | 100% | 100% | 92% | 0% |
